Assays:
Format in all cases: cell-based, Escherichia coli
Conditions in all cases: MHB, 37°C, 24 h, triplicate
E. coli JM109 = test: MIC, broth microdilution, retransformed E. coli JM109
Description: (§1) Escherichia coli DH5α, E. coli BL21(DE3), and E. coli JM109 were utilized in this study.
(§2) The MICs were determined using the broth microdilution method in 96-well microtiter plates ([Wiegand et al., 2008]). In brief, a 1:100 dilution of the mid-exponential phase bacterial culture (OD600 = 0.5), consisting of 5 μL (1 × 10^5 CFU/mL), was introduced into polypropylene 96-well plates. These plates contained a two-fold dilution series of AMP in a total volume of 100 μL MHB per well. The incubation of the plates occurred at 37°C in a humidity chamber. The MIC was identified as the lowest concentration that hindered visible bacterial growth after 24 h of incubation. Each experiment was conducted in triplicate.
(§3) Before washing down the colonies, we randomly selected two clones from each plate containing distinct AMP. Colony PCRs were conducted using M13 primer pairs to validate the presence of inserts and determine their sizes. The selected colonies were then subjected to sequencing. The specific details are provided in Supplementary Table S2. Following that, plasmids were isolated using the Plasmid Midiprep Kit (Zomanbio, ZP103) following the manufacturer’s guidelines. After the plasmids were successfully reintroduced into E. coli JM109 and E. coli BL 21(DE3), the MICs of the transformed strains against the AMP used for selection were tested. This testing process was carried out in triplicate.
(§4) Following validation, the colonies displaying resistance underwent additional testing via MIC assessments for the remaining four AMPs that were not employed during the selection process. This experimental procedure was carried out in triplicate.

E. coli BL21(DE3) = test: MIC, broth microdilution, retransformed E. coli BL21(DE3)
Description: as §1, §2, §3, §4

E. coli DH5α = test: MIC, broth microdilution, E. coli DH5α carrying pUC118 or resistance-conferring plasmids
Description: as §1, §2, §4

Polymyxin B [PB]
MIC (E. coli JM109; colony pUC118-FCST1-JM109 (feces insert 1 selected against colistin)): 0.25 µg/mL | MIC (E. coli JM109; colony pUC118-FCST2-JM109 (feces insert 2 selected against colistin)): 1 µg/mL | MIC (E. coli JM109; colony pUC118-FGQ1-JM109 (feces insert 1 selected against melittin)): 0.5 µg/mL | MIC (E. coli JM109; colony pUC118-FGQ2-JM109 (feces insert 2 selected against melittin)): 0.5 µg/mL | MIC (E. coli JM109; colony pUC118-FIB1-JM109 (feces insert 1 selected against iseganan)): 0.25 µg/mL | MIC (E. coli JM109; colony pUC118-FIB2-JM109 (feces insert 2 selected against iseganan)): 0.5 µg/mL | MIC (E. coli JM109; colony pUC118-FPB1-JM109 (feces insert 1 selected against polymyxin B)): 0.5 µg/mL | MIC (E. coli JM109; colony pUC118-FPB2-JM109 (feces insert 2 selected against polymyxin B)): 0.5 µg/mL | MIC (E. coli JM109; colony pUC118-FSA1-JM109 (feces insert 1 selected against cathelicidin-DM)): 0.25 µg/mL | MIC (E. coli JM109; colony pUC118-FSA2-JM109 (feces insert 2 selected against cathelicidin-DM)): 0.5 µg/mL | MIC (E. coli JM109; colony pUC118-JM109 (control, no insert)): 0.25 µg/mL | MIC (E. coli JM109; colony pUC118-SCST1-JM109 (soil insert 1 selected against colistin)): 0.25 µg/mL | MIC (E. coli JM109; colony pUC118-SCST2-JM109 (soil insert 2 selected against colistin)): 0.25 µg/mL | MIC (E. coli JM109; colony pUC118-SGQ1-JM109 (soil insert 1 selected against melittin)): 0.25 µg/mL | MIC (E. coli JM109; colony pUC118-SGQ2-JM109 (soil insert 2 selected against melittin)): 0.25 µg/mL | MIC (E. coli JM109; colony pUC118-SIB1-JM109 (soil insert 1 selected against iseganan)): 0.25 µg/mL | MIC (E. coli JM109; colony pUC118-SIB2-JM109 (soil insert 2 selected against iseganan)): 0.25 µg/mL | MIC (E. coli JM109; colony pUC118-SPB1-JM109 (soil insert 1 selected against polymyxin B)): 0.5 µg/mL | MIC (E. coli JM109; colony pUC118-SPB2-JM109 (soil insert 2 selected against polymyxin B)): 0.5 µg/mL | MIC (E. coli JM109; colony pUC118-SSA1-JM109 (soil insert 1 selected against cathelicidin-DM)): 0.25 µg/mL | MIC (E. coli JM109; colony pUC118-SSA2-JM109 (soil insert 2 selected against cathelicidin-DM)): 0.25 µg/mL | MIC (E. coli BL21(DE3); colony pUC118-BL21(DE3) (control, no insert)): 1 µg/mL | MIC (E. coli BL21(DE3); colony pUC118-FCST1-BL21(DE3) (feces insert 1 selected against colistin)): 1 µg/mL | MIC (E. coli BL21(DE3); colony pUC118-FCST2-BL21(DE3) (feces insert 2 selected against colistin)): 2 µg/mL | MIC (E. coli BL21(DE3); colony pUC118-FGQ1-BL21(DE3) (feces insert 1 selected against melittin)): 2 µg/mL | MIC (E. coli BL21(DE3); colony pUC118-FGQ2- BL21(DE3) (feces insert 2 selected against melittin)): 2 µg/mL | MIC (E. coli BL21(DE3); colony pUC118-FIB1-BL21(DE3) (feces insert 1 selected against iseganan)): 1 µg/mL | MIC (E. coli BL21(DE3); colony pUC118-FIB2-BL21(DE3) (feces insert 2 selected against iseganan)): 2 µg/mL | MIC (E. coli BL21(DE3); colony pUC118-FPB1-BL21(DE3) (feces insert 1 selected against polymyxin B)): 4 µg/mL | MIC (E. coli BL21(DE3); colony pUC118-FPB2-BL21(DE3) (feces insert 2 selected against polymyxin B)): 2 µg/mL | MIC (E. coli BL21(DE3); colony pUC118-FSA1-BL21(DE3) (feces insert 1 selected against cathelicidin-DM)): 1 µg/mL | MIC (E. coli BL21(DE3); colony pUC118-FSA2-BL21(DE3) (feces insert 2 selected against cathelicidin-DM)): 4 µg/mL | MIC (E. coli BL21(DE3); colony pUC118-SCST1-BL21(DE3) (soil insert 1 selected against colistin)): 1 µg/mL | MIC (E. coli BL21(DE3); colony pUC118-SCST2-BL21(DE3) (soil insert 2 selected against colistin)): 1 µg/mL | MIC (E. coli BL21(DE3); colony pUC118-SGQ1-BL21(DE3) (soil insert 1 selected against melittin)): 1 µg/mL | MIC (E. coli BL21(DE3); colony pUC118-SGQ2-BL21(DE3) (soil insert 2 selected against melittin)): 1 µg/mL | MIC (E. coli BL21(DE3); colony pUC118-SIB1-BL21(DE3) (soil insert 1 selected against iseganan)): 1 µg/mL | MIC (E. coli BL21(DE3); colony pUC118-SIB2-BL21(DE3) (soil insert 2 selected against iseganan)): 1 µg/mL | MIC (E. coli BL21(DE3); colony pUC118-SPB1-BL21(DE3) (soil insert 1 selected against polymyxin B)): 2 µg/mL | MIC (E. coli BL21(DE3); colony pUC118-SPB2-BL21(DE3) (soil insert 2 selected against polymyxin B)): 2 µg/mL | MIC (E. coli BL21(DE3); colony pUC118-SSA1-BL21(DE3) (soil insert 1 selected against cathelicidin-DM)): 1 µg/mL | MIC (E. coli BL21(DE3); colony pUC118-SSA2-BL21(DE3) (soil insert 2 selected against cathelicidin-DM)): 1 µg/mL | MIC (E. coli DH5α; E. coli DH5α containing pUC118 plasmids): 0.5 µg/mL | MIC (E. coli DH5α; colony pUC118-DH5α (control, no insert)): 0.5 µg/mL | MIC (E. coli DH5α; colony pUC118-FCST1-DH5α (feces insert 1 selected against colistin)): 0.5 µg/mL | MIC (E. coli DH5α; colony pUC118-FCST2-DH5α (feces insert 2 selected against colistin)): 1 µg/mL | MIC (E. coli DH5α; colony pUC118-FGQ1-DH5α (feces insert 1 selected against melittin)): 1 µg/mL | MIC (E. coli DH5α; colony pUC118-FGQ2-DH5α (feces insert 2 selected against melittin)): 1 µg/mL | MIC (E. coli DH5α; colony pUC118-FIB1-DH5α (feces insert 1 selected against iseganan)): 0.5 µg/mL | MIC (E. coli DH5α; colony pUC118-FIB2-DH5α (feces insert 2 selected against iseganan)): 1 µg/mL | MIC (E. coli DH5α; colony pUC118-FPB1-DH5α (feces insert 1 selected against polymyxin B)): 1 µg/mL | MIC (E. coli DH5α; colony pUC118-FPB2-DH5α (feces insert 2 selected against polymyxin B)): 1 µg/mL | MIC (E. coli DH5α; colony pUC118-FSA1-DH5α (feces insert 1 selected against cathelicidin-DM)): 0.5 µg/mL | MIC (E. coli DH5α; colony pUC118-FSA2-DH5α (feces insert 2 selected against cathelicidin-DM)): 1 µg/mL | MIC (E. coli DH5α; colony pUC118-SCST1-DH5α (soil insert 1 selected against colistin)): 0.5 µg/mL | MIC (E. coli DH5α; colony pUC118-SCST2-DH5α (soil insert 2 selected against colistin)): 0.5 µg/mL | MIC (E. coli DH5α; colony pUC118-SGQ1-DH5α (soil insert 1 selected against melittin)): 0.5 µg/mL | MIC (E. coli DH5α; colony pUC118-SGQ2-DH5α (soil insert 2 selected against melittin)): 0.5 µg/mL | MIC (E. coli DH5α; colony pUC118-SIB1-DH5α (soil insert 1 selected against iseganan)): 0.5 µg/mL | MIC (E. coli DH5α; colony pUC118-SIB2-DH5α (soil insert 2 selected against iseganan)): 0.5 µg/mL | MIC (E. coli DH5α; colony pUC118-SPB1-DH5α (soil insert 1 selected against polymyxin B)): 1 µg/mL | MIC (E. coli DH5α; colony pUC118-SPB2-DH5α (soil insert 2 selected against polymyxin B)): 2 µg/mL | MIC (E. coli DH5α; colony pUC118-SSA1-DH5α (soil insert 1 selected against cathelicidin-DM)): 0.5 µg/mL | MIC (E. coli DH5α; colony pUC118-SSA2-DH5α (soil insert 2 selected against cathelicidin-DM)): 0.5 µg/mL

From paper PMC10999558, “Analyzing resistome in soil and Human gut: a study on the characterization and risk evaluation of antimicrobial peptide resistance” (Frontiers in Microbiology, 2024)
